Data published in paper PMC3514116 (BMC Plant Biology, 2012).
Marks after values point to notes of the source that are not given here. Ends that are not written are not given here.

Legend:
rice Senia seeds = experiment: Phytotoxicity, rice germination assay; type: in vivo, Oryza sativa L.; details: for Phytotoxicity (germination): minimal peptide concentration causing significant alteration of shoot length: 12 Senia seeds per treatment germinated 7 days in 0, 8, 16, 32, 64 μM peptide, 28°C, one-way ANOVA; for Effect on rice seedling development at high concentrations: germination test, Senia seeds, 7 days, 125 and 250 μM also tested
Description: For each treatment, a total of 12 surface-sterilized Senia seeds were germinated in 500 μl water or peptide solution at the appropriate concentration (0, 8, 16, 32 and 64 μM) in a culture chamber (28 ± 1°C with a photoperiod of 16 h light / 8 h dark under fluorescent Sylvania Cool White lamps) for seven days. Seedling morphology was recorded and shoot length was measured.

tobacco leaves = experiment: Phytotoxicity, tobacco leaf inoculation assay; type: in vivo, Nicotiana benthamiana; details: for Phytotoxicity at 150 μM (inoculation): lesion diameter: 100 μl of 150 μM peptide inoculated into tobacco leaf mesophyll, three days, mean and standard error, at least three inoculations
Description: Tobacco (Nicotiana benthamiana) plants were grown from seed in a heated glasshouse and used between 20 and 30 days old. One hundredμl chemically synthesized peptides at 50, 100, 150 or 250 μM were inoculated into the mesophylls of fully expanded tobacco leaves (previously wounded with a needle), using a syringe without needle, and plants were kept at standard glasshouse conditions for three days. Up to six independent inoculations were carried out in a single leaf, and at least three independent inoculations were performed per peptide and concentration, randomly distributed in different leaves and plants. Toxicity was measured as the lesion diameter.

[1] = test system: erythrocyte suspensions of fresh human blood; experiment: Hemolytic activity (hemoglobin release); type: cell-based; details: human erythrocytes 5% v/v, TRIS/NaCl pH 7.2, 150 μM peptide, 1 h 37°C, A540
Description: Hemoglobin release from erythrocyte suspensions of fresh human blood (5% v/v) was used to evaluate hemolytic activity of synthetic peptides. Briefly, aseptically collected blood (BD vacutainer K2E System with EDTA, Belliver Industrial State, Plymouth, UK) was centrifuged at 6,000 g for 5 min, washed with 10 mM TRIS, 150 mM NaCl, pH 7.2 and suspended in the same buffer. Fifty μl of peptide solutions at 300 μM were mixed with 50 μl aliquots of erythrocyte suspensions and incubated for 1h at 37 °C with shaking. After centrifugation, the supernatants were transferred to microplate wells with 80 μl H2O and the 540 nm absorbance was monitored with a Bioscreen plate reader. Hemolysis percentages were calculated relative to mellitin and TRIS buffer.

[2] = test system: erythrocyte suspensions of fresh human blood; details: human erythrocytes 5% v/v, TRIS/NaCl pH 7.2, 1 h 37°C, A540, relative to mellitin; confidence interval for α = 0.05; cited from earlier work
mice = details: cited from earlier work
[3] = test system: Dickeya chrysanthemi 1552-10-1 (Dc); experiment: In vitro growth inhibition (MIC), Dickeya chrysanthemi; details: 10^8 bacterial CFU/ml suspension in TSB, microtiter plate, 25°C 48 h, OD 600 nm; three replicates, two experimental replicates
Description: (§1) Peptides were solubilized in sterile Milli-Q H2O to a concentration of 1 mM and filter sterilized through a 0.22 μm pore filter. […] Bacterial strains were stored at −80°C in Luria Bertani (LB) broth with glycerol (20%). After 24 h (Ea, Pss and Dc) or 48 h (Xav) growth in LB agar at 25°C, bacterial colonies were scraped off the surface, suspended in sterile H2O and adjusted to 10^8 CFU/ml. The fungal strain was stored at 4°C in the particulate solid carrier perlite, on fresh potato dextrose agar (PDA). Fv cultures were prepared in potato dextrose broth (PDB) and incubated for one week at 25°C in the dark in a rotary shaker at 125 rpm. They were filtered through several layers of sterile cheesecloth to eliminate macroconidia and mycelial growth. The effluent was centrifuged at 8,000 rpm for 20 min at 4°C and the pellet was suspended in sterile water. Microconidia concentration was determined in a counting chamber.
(§2) Serial dilutions of synthetic peptides were prepared at 400, 200, 100, 50, 25, 12.5 and 6 μM. […] Microplates were incubated at 25°C for 48 h (bacterial strains) or 22°C for 6 days (Fv), and optical densities at 600 nm were recorded hourly (every two hours for Fv) after 20 s shaking. […]

[4] = test system: Xanthomonas axonopodis pv. vesicatoria 2133-2 (Xav); experiment: In vitro growth inhibition (MIC), Xanthomonas axonopodis pv. vesicatoria; details: 10^8 bacterial CFU/ml suspension in TSB, microtiter plate, 25°C 48 h, OD 600 nm; three replicates, two experimental replicates
Description: as §1, §2

[5] = test system: Erwinia amylovora PMV6076 (Ea); experiment: In vitro growth inhibition (MIC), Erwinia amylovora; details: 10^8 bacterial CFU/ml suspension in TSB, microtiter plate, 25°C 48 h, OD 600 nm; three replicates, two experimental replicates; MIC = lowest concentration with no growth
Description: as §1, §2

[6] = test system: Pseudomonas syringae pv. syringae EPS94 (Pss); experiment: In vitro growth inhibition (MIC), Pseudomonas syringae pv. syringae; details: 10^8 bacterial CFU/ml suspension in TSB, microtiter plate, 25°C 48 h, OD 600 nm; three replicates, two experimental replicates
Description: as §1, §2

For CC[C@H](C)[C@H](NC(=O)[C@H](CCCCN)NC(=O)[C@H](CCCCN)NC(=O)[C@H](Cc1ccccc1)NC(=O)[C@H](CC(C)C)NC(=O)[C@H](CCCCN)NC(=O)[C@@H](N)CCCCN)C(=O)N[C@@H](CC(C)C)C(=O)N[C@@H](CCCCN)C(=O)N[C@@H](Cc1ccc(O)cc1)C(=O)N[C@@H](CC(C)C)C(=O)N[C@@H](CCCCN)C(=O)N[C@@H](CC(=O)O)C(=O)N[C@@H](CCC(=O)O)C(=O)N[C@@H](CC(C)C)C(N)=O [BP100.1], the “Phytotoxicity (germination): minimal peptide concentration causing significant alteration of shoot length” value (rice Senia seeds) was 64 µM, the “Phytotoxicity at 150 μM (inoculation): lesion diameter” value (from here on “Phytotoxicity at 150 μM (inoculation)”) (tobacco leaves) was 1.17 cm and the “Hemolytic activity at 150 μM, ratio between each peptide and the reference peptide BP100” value [1] was <1.
With CC[C@H](C)[C@H](NC(=O)[C@H](CC(C)C)NC(=O)[C@H](CCCCN)NC(=O)[C@H](Cc1ccc(O)cc1)NC(=O)[C@H](CC(C)C)NC(=O)[C@H](C)NC(=O)[C@@H]1CCCN1C(=O)CNC(=O)[C@H](C)NC(=O)[C@H](CC(C)C)NC(=O)[C@H](Cc1ccc(O)cc1)NC(=O)[C@H](CCCCN)NC(=O)[C@H](CC(C)C)NC(=O)[C@@H](NC(=O)[C@H](CCCCN)NC(=O)[C@H](CCCCN)NC(=O)[C@H](Cc1ccccc1)NC(=O)[C@H](CC(C)C)NC(=O)[C@H](CCCCN)NC(=O)[C@@H](N)CCCCN)[C@@H](C)CC)C(=O)N[C@@H](CCCCN)C(=O)N[C@@H](CCCCN)C(=O)N[C@@H](Cc1ccccc1)C(=O)N[C@@H](CC(C)C)C(=O)N[C@@H](CCCCN)C(=O)N[C@@H](CCCCN)C(=O)N[C@@H](CCCCN)C(=O)N[C@@H](CC(=O)O)C(=O)N[C@@H](CCC(=O)O)C(=O)N[C@@H](CC(C)C)C(N)=O [BP100.2i] the “Phytotoxicity (germination): minimal peptide concentration causing significant alteration of shoot length” value (rice Senia seeds) was 16 µM, the “Phytotoxicity at 150 μM (inoculation)” value (tobacco leaves) was 1.32 ± 0.06^b cm and the “Hemolytic activity at 150 μM, ratio between each peptide and the reference peptide BP100” value [1] was 4.
In the case of CC[C@H](C)[C@H](NC(=O)[C@H](CCCCN)NC(=O)[C@H](CCCCN)NC(=O)[C@H](Cc1ccccc1)NC(=O)[C@H](CC(C)C)NC(=O)[C@H](CCCCN)NC(=O)[C@@H](N)CCCCN)C(=O)N[C@@H](CC(C)C)C(=O)N[C@@H](CCCCN)C(=O)N[C@@H](Cc1ccc(O)cc1)C(=O)N[C@@H](CC(C)C)C(N)=O [BP100], the “Phytotoxicity (germination): minimal peptide concentration causing significant alteration of shoot length” value (rice Senia seeds) is reported as 64 µM, the “Effect on rice seedling development at high concentrations” value (rice Senia seeds) is reported as “barely effected root growth but almost completely inhibited shoot development” and the “Phytotoxicity at 150 μM (inoculation)” value (tobacco leaves) is reported as 0.90 ± 0.05^a cm. The “Hemolytic activity at 150 μM” value [2] was 22.0 ± 2.8%, the “Biocompatibility in acute oral toxicity tests” value (mice) was “highly biocompatible” and the “Antimicrobial activity Dc, minimal inhibitory concentration (MIC)” value [3] was 5 to 10 µM. The “Antimicrobial activity Xav, minimal inhibitory concentration (MIC)” value [4] was 5.0 to 10 µM.
In the case of CC[C@H](C)[C@H](NC(=O)[C@H](CCCCN)NC(=O)[C@H](CCCCN)NC(=O)[C@H](Cc1ccccc1)NC(=O)[C@H](CC(C)C)NC(=O)[C@H](CCCCN)NC(=O)[C@@H](N)CCCCN)C(=O)N[C@@H](CC(C)C)C(=O)N[C@@H](CCCCN)C(=O)N[C@@H](Cc1ccc(O)cc1)C(=O)N[C@@H](CC(C)C)C(=O)O [unmodified BP100], the “Phytotoxicity (germination): minimal peptide concentration causing significant alteration of shoot length” value (rice Senia seeds) is reported as 64 µM, the “Phytotoxicity at 150 μM (inoculation)” value (tobacco leaves) is reported as 0.80 ± 0.02^a cm and the “Hemolytic activity at 150 μM, ratio between each peptide and the reference peptide BP100” value [1] is reported as 1. The “Antimicrobial activity Ea, minimal inhibitory concentration (MIC)” value [5] was 5.0 to 10 µM, the “Antimicrobial activity Dc, minimal inhibitory concentration (MIC)” value [3] was 10 to 20 µM and the “Antimicrobial activity Pss, minimal inhibitory concentration (MIC)” value [6] was 5.0 to 10 µM. For the same molecule, the “Antimicrobial activity Xav, minimal inhibitory concentration (MIC)” value [4] was 10 to 20 µM.
In the case of “KKLFKKILKYLAGPAKKLFKKILKYLAGPAKKLFKKILKYLKDEL-NH2 (C-terminus assumed) [BP100.3]”, the “Phytotoxicity (germination): minimal peptide concentration causing significant alteration of shoot length” value (rice Senia seeds) is reported as 16 µM, the “Phytotoxicity at 150 μM (inoculation)” value (tobacco leaves) is reported as 1.38 ± 0.04^b cm and the “Hemolytic activity at 150 μM, ratio between each peptide and the reference peptide BP100” value [1] is reported as 4.
With “KKLFKKILKYLAGPAKKLFKKILKYLKDEL-NH2 (C-terminus assumed) [BP100.2]” the “Phytotoxicity (germination): minimal peptide concentration causing significant alteration of shoot length” value (rice Senia seeds) was 32 µM, the “Phytotoxicity at 150 μM (inoculation)” value (tobacco leaves) was 1.15 cm and the “Hemolytic activity at 150 μM, ratio between each peptide and the reference peptide BP100” value [1] was 3.
In the case of “KKLFKKILKYLTTGLPALISAGPASILAPLGTTLYKLIKKFLKKKDEL-NH2 (C-terminus assumed) [BP100.2mi]”, the “Phytotoxicity (germination): minimal peptide concentration causing significant alteration of shoot length” value (rice Senia seeds) is reported as 16 µM, the “Phytotoxicity at 150 μM (inoculation)” value (tobacco leaves) is reported as 1.46 ± 0.12^b cm and the “Hemolytic activity at 150 μM, ratio between each peptide and the reference peptide BP100” value [1] is reported as 5.
For “mellitin: highly cytotoxic, potent hemolytic natural AMP, 26 amino acids, positive control [reference compound]”, the “Effect on rice seedling development at high concentrations” value (rice Senia seeds) was “predominantly inhibited root growth while allowing moderate shoot development” and the “Lesions in tobacco leaves compared with BP100 and BP100 derivatives” value (tobacco leaves; inoculation of 50 to 250 μM, same doses, positive control) was “more severe lesions”.
